Measurements as given in patent publication US20070218002A1, “Method for Detecting Alzheimer's Disease and other Forms of Dementia, and Measuring Their Progression” (priority 2004, published 2007).
“And” between values parts separate entries of the source, which are not always exact repeats. Identical values can stand only once. “Also recorded” adds a separate entry of the source.

Columns and labels:
5-HT1A receptors = target: T1, 5-HT1A receptors (Homo sapiens, UniProt P08908); assay: In vitro [F-18]MPPF digital autoradiography on whole-hemisphere brain cryosections; type: binding
T1 construct: Glass mounted whole-hemisphere brain cryosections (100 μm thick), cut at the level of hippocampus; from tissue; host or cells: post-mortem human brain, whole-hemisphere cryosections at the level of the hippocampus
T1 sequence (P08908 1-422): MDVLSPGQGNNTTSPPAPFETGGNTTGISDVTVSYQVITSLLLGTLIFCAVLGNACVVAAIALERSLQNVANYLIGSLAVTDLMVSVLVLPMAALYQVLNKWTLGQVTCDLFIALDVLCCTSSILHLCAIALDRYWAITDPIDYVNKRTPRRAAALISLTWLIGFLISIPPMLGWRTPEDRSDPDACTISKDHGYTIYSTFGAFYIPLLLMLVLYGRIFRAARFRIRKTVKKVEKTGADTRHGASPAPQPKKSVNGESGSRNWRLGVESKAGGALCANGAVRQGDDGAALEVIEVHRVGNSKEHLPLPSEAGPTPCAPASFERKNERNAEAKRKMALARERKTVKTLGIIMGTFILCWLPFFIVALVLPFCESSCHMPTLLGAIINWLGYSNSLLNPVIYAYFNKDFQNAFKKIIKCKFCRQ

[1] = target: T2, serotonin 5-HT1A receptors (Homo sapiens, UniProt P08908); assay: [F-18]MPPF PET, Logan plot quantitation of binding potential; type: in vivo
T2 construct: from tissue; host or cells: living human brain (in vivo PET; hippocampus, raphe nuclei, cortical regions)
T2 sequence (P08908 1-422): T1 sequence (P08908 1-422)
Description: (§1) All scans were performed with ECAT HR or ECAT HR+ scanners (Siemens-CTI, Knoxville, Tenn.). The subjects were in the supine position with the imaging plane parallel to the orbito-meatal line and with their eyes open and ears unoccluded. A 20 min transmission scan was performed to correct PET data for radiation attenuation. 320-550 MBq of a PET tracer was injected as a bolus injection via the in-dwelling venous catheter, and the consecutive dynamic head PET scans were performed for 1 hour with [F-18]FDG or for 2 hours with [F-18]MPPF or with [F-18]FDDNP.
(§2) All PET scans were decay corrected and reconstructed using filtered-back projection (Hann filter, 5 mm FWHM) with scatter and attenuation correction. The resulting images contained either 47 contiguous slices with 3.4 mm plane-to-pane separation (EXACT HR) or 63 contiguous slices with the plane-to-plane separation of 2.42 mm (EXACT HR+).
Anatomical brain magnetic resonance scans were obtained using either a 1.5 Tesla magnet (General Electric-Signa, Milwaukee, Wis.) or a 3 Tesla magnet (General Electric-Signa) scanner. […] A double echo, fast spin echo series using a 24-cm field of view and 256×256 matrix with 3 mm/0 gap (TR=6000 [3T] and 2000 [1.5T]; TE=17/85 [3T] and 30/90 [1.5T]) An inter-modality image co-registration program (7) that uses image segmentation and simulation as preprocessing procedures was used to co-register PET and anatomical MRI images of each subject. Rules for ROI drawing were based on the identification of gyral and sulcal landmarks with respect to the atlas of Talairach and Tournoux (8).
Quantitation of [F-18]MPPF binding was performed using Logan plot graphical analysis, using the cerebellum, an area largely devoid of 5-HT1A receptors, as the reference region (9). […] Tracer binding potential (BP=Bmax/Kd) parametric images were analyzed using ROIs drawn bilaterally on hippocampus, lateral temporal lobe, parietal lobe, frontal lobe, and posterior cingulate cortex, and a single ROI on the dorsal raphe nucleus using MRI as a guide. Total binding potentials (BPT, BPT=BP×volume) were determined for left and right hippocampus by multiplying the hippocampal BP values with the hippocampus volumes on co-registered MRI.

glucose metabolism = assay: [F-18]FDG PET, relative standardized uptake value; type: in vivo, human; conditions: normalized to motor cortex
Description: as §1, §2
The dynamic [F-18]FDG PET images were summed (frames 30-60min) and the resulting image was used for the following analysis: ROIs were drawn bilaterally on transaxially oriented images on the gray matter signal in the frontal lobe, parietal lobe, lateral temporal lobe, and medial temporal lobe. In addition, one ROI was drawn on the posterior cingulated gyrus. ROIs were also drawn bilaterally on the motor cortex as a reference region. Values for each ROI were extracted and relative standardized uptake values were calculated for each region separately. The average of both ROIs from the same region was divided by the average of ROI values for the motor cortex. In a similar way, the ROI value for the posterior cingulated gyrus was normalized by the average value for motor cortex. Finally the global [F-18]FDG SUVR index was calculated for the parietal, medial temporal, and lateral temporal lobes.

[2] = test system: NFTs and SPs (neurofibrillary tangles, β-amyloid senile plaques); assay: [F-18]FDDNP PET, Logan plot relative distribution volume; type: in vivo, human; conditions: cerebellum reference
Description: as §1, §2
Quantitation of [F-18]FDDNP data was performed using the Logan plot graphical analysis with the cerebellum as the reference region. Distribution volume ratio (DVR) parametric images were created as described elsewhere. ROIs were drawn bilaterally on the early frames of the dynamic PET scan (3 min to 6 min post-injection) using MRI as a guide bilaterally on the transaxial images on frontal lobe, on parietal lobe, on medial temporal lobe, and on lateral temporal lobe. In addition, a single ROI was placed on posterior cingulated gyrus. DV values for cortical regions were extracted from the [F-18]FDDNP DV parametric image using the above-described ROI set. DV values were determined for all 9 cortical ROIs and for cerebellum. Relative global neocortical [F-18]FDDNP distribution volume (global DVR) was determined by dividing the DV average value of the eight neocortical ROIs with the DV average value of cerebellar ROIs. In similar fashion, regional relative distribution volumes (DVRs) were determined for frontal, parietal, lateral temporal and medial temporal areas by dividing the DV average of both ROIs from the corresponding region with the DV average value of cerebellar ROIs. The posterior cingulated gyrus DVR was determined by dividing the cingulated gyrus DV value with the DV average value of cerebellar ROIs.

[3] = test system: Tau aggregates and amyloid plaques; assay: In vitro [F-18]FDDNP digital autoradiography on brain tissue slices; type: binding, human
Description: Two AD and three control brain samples were obtained at the time of autopsy from the Alzheimer's Disease Research Center at USC Keck School of Medicine, Los Angeles. Glass mounted whole-hemisphere brain cryosections (100 μm thick), cut at the level of hippocampus, were incubated with 1.85 MBq/mL of […] in 50 mM Tris buffer/saline (pH=7.4) for 2 hours at room temperature. The samples were exposed to β^+-sensitive phosphor storage plates for 60 min, scanned in with BAS 5000 Phosphorimager, and analyzed with MacBAS software provided with the instrument (Fuji Film Medical Systems USA, Stamford, Conn.). […] All values were normalized to the inner layer, known to be well preserved in AD (16). [F-18]FDDNP autoradiography was performed as described elsewhere (17). In brief, the de-fattened tissue slices were incubated with 0.37 MBq/mL of [F-18]FDDNP in 1% ethanol in normal saline for 25 min at room temperature followed by differentiation in 60% 2-methyl-2-butanol (3 min). The sections were exposed to β^+-sensitive phosphor storage plates for 60 min and scanned in with BAS 5000 Phosphorimager.

[4] = AD subjects compared to control subjects

## COc1ccccc1N1CCN(CCN(C(=O)c2ccc([18F])cc2)c2ccccn2)CC1 [[F-18]MPPF, 4-[F-18]fluoro-N-{2-[1-(2-methoxyphenyl)-piperazinyl]ethyl}-N-(2-pyridinyl)benzamide]
5-HT1A receptors; AD cases (individual)
  binding ratio (BR), outer layers of gray matter in the inferior temporal gyrus: 1.13 and 1.16
5-HT1A receptors; AD samples (individual)
  hippocampal binding ratio (BR), CA1 field/subiculum relative to inner layer of inferior temporal gyrus gray matter: 1.03 and 1.18
5-HT1A receptors; AD vs control samples
  drop in in vitro binding, hippocampus: 60-70%
5-HT1A receptors; control samples (individual)
  hippocampal binding ratio (BR), CA1 field/subiculum relative to inner layer of inferior temporal gyrus gray matter: 3.29 and 3.00 and 2.98
5-HT1A receptors; non-demented cases (individual)
  binding ratio (BR), outer layers of gray matter in the inferior temporal gyrus: 1.46 and 1.40 and 2.01
[1]; AD
  hippocampus total binding potential (BPT=BP×volume): 2.24±0.61
[1]; AD group
  [F-18]MPPF mean BP ± 1 SD, Frontal Lobe: 0.41 ± 0.13
  [F-18]MPPF mean BP ± 1 SD, Lateral Temporal Lobe: 0.73 ± 0.16
  [F-18]MPPF mean BP ± 1 SD, Parietal Lobe: 0.48 ± 0.13
  [F-18]MPPF mean BP ± 1 SD, Posterior Cingulate Gyrus: 0.56 ± 0.20
[1]; AD patients in general
  MPPF accumulation in the hippocampi: ≤ 50%
[1]; [4]
  drop in dorsal raphe nucleus BP values: 41%
  drop in hippocampus BP values: 27%
[1]; ADs
  hippocampus BPT lower compared with controls: 49%
[1]; Control group
  [F-18]MPPF mean BP ± 1 SD, Frontal Lobe: 0.49 ± 0.15
  [F-18]MPPF mean BP ± 1 SD, Hippocampus: 1.62±0.07
  [F-18]MPPF mean BP ± 1 SD, Lateral Temporal Lobe: 0.82 ± 0.17
  [F-18]MPPF mean BP ± 1 SD, Parietal Lobe: 0.63 ± 0.15
  [F-18]MPPF mean BP ± 1 SD, Posterior Cingulate Gyrus: 0.68 ± 0.06
  [F-18]MPPF mean BP ± 1 SD, Raphe Nuclei: 0.63±0.09
[1]; MCI
  hippocampus total binding potential (BPT=BP×volume): 3.14±0.34
[1]; MCI group
  [F-18]MPPF mean BP ± 1 SD, Frontal Lobe: 0.44 ± 0.12
  [F-18]MPPF mean BP ± 1 SD, Lateral Temporal Lobe: 0.80 ± 0.11
  [F-18]MPPF mean BP ± 1 SD, Parietal Lobe: 0.43 ± 0.11
  [F-18]MPPF mean BP ± 1 SD, Posterior Cingulate Gyrus: 0.56 ± 0.12
  [F-18]MPPF mean BP ± 1 SD, Raphe Nuclei: 0.52 ± 0.11
[1]; MCI subjects
  mean hippocampus BP value lower than in controls: 13%
[1]; MCIs
  hippocampus BPT lower compared with controls: 24%
[1]; controls
  hippocampus total binding potential (BPT=BP×volume): 4.40±0.22

## OC[C@H]1OC(O)[C@H]([18F])[C@@H](O)[C@@H]1O (stereo partly drawn) [[F-18]FDG, 2-deoxy-2-[F-18]fluoro-D-glucose]
Glucose metabolism; AD group
  FDG mean SUVR ± 1 SD, Frontal Lobe: 0.79 ± 0.07
  FDG mean SUVR ± 1 SD, Global: 0.66 ± 0.04
  FDG mean SUVR ± 1 SD, Lateral Temporal Lobe: 0.66 ± 0.07
  FDG mean SUVR ± 1 SD, Medial Temporal Lobe: 0.66 ± 0.04
  FDG mean SUVR ± 1 SD, Parietal Lobe: 0.67 ± 0.09
  FDG mean SUVR ± 1 SD, Posterior Cingulate Gyrus: 0.79 ± 0.11
Glucose metabolism; CTRL group
  FDG mean SUVR ± 1 SD, Frontal Lobe: 0.95 ± 0.08
  FDG mean SUVR ± 1 SD, Global: 0.80 ± 0.04
  FDG mean SUVR ± 1 SD, Lateral Temporal Lobe: 0.86 ± 0.06
  FDG mean SUVR ± 1 SD, Medial Temporal Lobe: 0.73 ± 0.02
  FDG mean SUVR ± 1 SD, Parietal Lobe: 0.89 ± 0.06
  FDG mean SUVR ± 1 SD, Posterior Cingulate Gyrus: 1.05±0.09
Glucose metabolism; CTRL group, listed as FDG
  FDG mean SUVR ± 1 SD, Posterior Cingulate Gyrus: 1.05 ± 0.09
Glucose metabolism; MCI group
  FDG mean SUVR ± 1 SD, Frontal Lobe: 0.90 ± 0.02
  FDG mean SUVR ± 1 SD, Global: 0.77 ± 0.04
  FDG mean SUVR ± 1 SD, Lateral Temporal Lobe: 0.81 ± 0.05
  FDG mean SUVR ± 1 SD, Medial Temporal Lobe: 0.69 ± 0.03
  FDG mean SUVR ± 1 SD, Parietal Lobe: 0.84 ± 0.05
  FDG mean SUVR ± 1 SD, Posterior Cingulate Gyrus: 0.89±0.06
Glucose metabolism; MCI group, listed as FDG
  FDG mean SUVR ± 1 SD, Posterior Cingulate Gyrus: 0.89 ± 0.06

## CC(=C(C#N)C#N)c1ccc2cc(N(C)CC[18F])ccc2c1 [[F-18]FDDNP, 2-(1-{6-[(2-[F-18]fluoroethyl)(methyl)amino]-2-naphthyl}ethylidene)malononitrile]
[2]; AD group
  FDDNP mean DVR ± 1 SD, Frontal Lobe: 1.11 ± 0.03
  FDDNP mean DVR ± 1 SD, Global: 1.17±0.01
  FDDNP mean DVR ± 1 SD, Lateral Temporal Lobe: 1.17 ± 0.03
  FDDNP mean DVR ± 1 SD, Medial Temporal Lobe: 1.23 ± 0.04
  FDDNP mean DVR ± 1 SD, Parietal Lobe: 1.17 ± 0.03
  FDDNP mean DVR ± 1 SD, Posterior Cingulate Gyrus: 1.18 ± 0.06
[2]; AD group, listed as FDDNP
  FDDNP mean DVR ± 1 SD, Global: 1.17 ± 0.01
[2]; CTRL group
  FDDNP mean DVR ± 1 SD, Frontal Lobe: 1.05 ± 0.01
  FDDNP mean DVR ± 1 SD, Global: 1.08±0.03
  FDDNP mean DVR ± 1 SD, Lateral Temporal Lobe: 1.07 ± 0.03
  FDDNP mean DVR ± 1 SD, Medial Temporal Lobe: 1.12 ± 0.05
  FDDNP mean DVR ± 1 SD, Parietal Lobe: 1.07 ± 0.03
  FDDNP mean DVR ± 1 SD, Posterior Cingulate Gyrus: 1.07 ± 0.05
[2]; CTRL group, listed as FDDNP
  FDDNP mean DVR ± 1 SD, Global: 1.08 ± 0.03
[2]; MCI group
  FDDNP mean DVR ± 1 SD, Frontal Lobe: 1.08 ± 0.01
  FDDNP mean DVR ± 1 SD, Global: 1.12 ± 0.01
  FDDNP mean DVR ± 1 SD, Lateral Temporal Lobe: 1.13 ± 0.03
  FDDNP mean DVR ± 1 SD, Medial Temporal Lobe: 1.19 ± 0.02
  FDDNP mean DVR ± 1 SD, Parietal Lobe: 1.09 ± 0.03
  FDDNP mean DVR ± 1 SD, Posterior Cingulate Gyrus: 1.12 ± 0.03
[3]; AD tissue
  [F-18]FDDNP binding to gray matter, autoradiography: increased in the gray matter of temporal and limbic lobes; also recorded: strong [F-18]FDDNP binding to the gray matter in the temporal lobe and in cingulated gyrus
[3]; normal control brain samples
  [F-18]FDDNP binding to gray matter, autoradiography: uniformly low; also recorded: none of the gray matter areas from the normal control brain samples showed [F-18]FDDNP binding above background levels in white matter
